Earlier results, collected in patent publication US7115654B2, “Caspase-1 inhibitors and methods for their use” (Sunesis Pharmaceuticals, Inc., priority 2002, dated 2006).

System: embryonic nigral cell suspension

## Ac-YVAD-cmk
Hemiparkinsonian rats
  functional recovery: substantially improved
Neurons grafted to hemiparkinsonian rats
  survival of dopaminergic neurons: increased
Treatment of the embryonic nigral cell suspension
  apoptosis in transplants: reduced
Treatment of the embryonic nigral cell suspension, in transplants
  DNA fragmentation: mitigated
